pEC50, pIC50: −log10 of the molar value. Where two headings read alike, the source gives them in different places.
Columns and labels:
[1] = test system: NCI-H358 cells (K-Ras G12C); experiment: CellTiter-Glo cell viability, NCI-H358; assay type: cell-based, human; settings: K-Ras G12C, 5-day treatment, read-out: H358 Cell Viability IC50
Procedure: Note—The following protocol describes a procedure for monitoring cell viability of K-Ras mutant cancer cell lines in response to a compound of the invention. Other RAS isoforms may be employed, though the number of cells to be seeded will vary based on cell line used.
Test compounds (132.5 nl) were directly dispensed into the assay plates containing cells. […] On day 5, assay plates and their contents were equilibrated to room temperature for approximately 30 minutes. […] Luminescence was measured using the PerkinElmer Enspire. Data were normalized by the following: (Sample signal/Avg. DMSO)*100. The data were fit using a four-parameter logistic fit.

[2] = test system: Capan-1 cells (K-Ras G12V); experiment: CellTiter-Glo cell viability, Capan-1; assay type: cell-based, human; settings: Homo sapiens, CAPAN-1, 120 h, K-Ras G12V, 5-day treatment; read-out: Capan-1 Cell Viability IC50
In short: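 Five-day treatment of K-Ras mutant cells with directly dispensed compound; ATP-based luminescence endpoint. Percent of DMSO signal fit to four-parameter logistic curve.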

[3] = test system: K-Ras G12C (NCI-H358 cells); experiment: Potency assay: pERK in NCI-H358 cells; assay type: cell-based, human; settings: NCI-H358 cells, 4 hours, read-out: pERK EC50 (H358 KRAS G12C)
In short: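 Cells plated the day before were exposed for 4 h at 37° C, 5% CO2 to a 10-point, 3-fold DMSO dilution series (10 mM top stock), in duplicate. Phospho-ERK was read by AlphaLISA SureFire Ultra or by In-Cell Western with DRAQ5 DNA stain, and IC50 came from a 4-parameter sigmoidal fit.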

KRAS G12D = KRAS G12D (Homo sapiens (Human), UniProt P01116+P62937, G12D); experiment: Ras-Raf disruption/FRET/MOA assay (BRAF RBD, Cyclophilin A); assay type: biochemical; settings: read-out: KRAS G12D FRET IC50
In short: (§1)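 Measured: compound-facilitated Cyclophilin A:Ras complex blocking RAF RBD binding. Conditions: 12.5 nM Ras-GMPPNP, 50 nM BRAF RBD, 25 μM CypA, 3 h plus 1.5 h detection. Output: IC50 from TR-FRET ratio.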

KRAS G13C = KRAS G13C (Homo sapiens (Human), UniProt P01116+P62937, G13C); experiment: as above; assay type: biochemical; settings: read-out: KRAS G13C FRET IC50
In short: as §1

KRAS G12C = KRAS G12C (Homo sapiens (Human), UniProt P01116+P62937, G12C); experiment: as above; assay type: biochemical; settings: read-out: KRAS G12C FRET IC50
In short: as §1

KRAS WT = KRAS WT (Homo sapiens (Human), UniProt P01116+P62937); experiment: as above; assay type: biochemical; settings: read-out: KRAS WT FRET data IC50
In short: as §1

KRAS G12V = KRAS G12V (Homo sapiens (Human), UniProt P01116+P62937, G12V); experiment: as above; assay type: biochemical; settings: read-out: KRAS G12V FRET IC50
In short: as §1

KRAS G13D = KRAS G13D (Homo sapiens (Human), UniProt P01116+P62937, G13D); experiment: as above; assay type: biochemical; settings: read-out: KRAS G13D FRET data IC50
In short: as §1

KRAS G12S = KRAS G12S (Homo sapiens (Human), UniProt P01116+P62937, G12S); experiment: as above; assay type: biochemical; settings: read-out: KRAS G12S FRET IC50
In short: as §1

NRAS G12C = NRAS G12C (Homo sapiens (Human), UniProt P01111+P62937, G12C); experiment: as above; assay type: biochemical; settings: read-out: NRAS G12C FRET data IC50
Chain of NRAS G12C (P01111 whole entry G12C): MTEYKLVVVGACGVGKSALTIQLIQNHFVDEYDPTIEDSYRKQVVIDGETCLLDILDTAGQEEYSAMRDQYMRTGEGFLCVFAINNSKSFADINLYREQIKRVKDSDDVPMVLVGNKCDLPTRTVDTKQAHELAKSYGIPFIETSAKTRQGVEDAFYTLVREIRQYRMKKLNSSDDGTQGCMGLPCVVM
Chain of NRAS G12C (P62937 whole entry): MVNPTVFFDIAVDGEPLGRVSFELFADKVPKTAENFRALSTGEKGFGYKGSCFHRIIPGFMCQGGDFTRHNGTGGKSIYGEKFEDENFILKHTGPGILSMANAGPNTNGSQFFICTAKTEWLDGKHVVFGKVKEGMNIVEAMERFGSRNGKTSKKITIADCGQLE
In short: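 TR-FRET readout: anti-His Eu-W1024 (10 nM) and anti-GST allophycocyanin (50 nM) added after 3 h, 25° C compound incubation, then 1.5 h more. Decrease in FRET ratio versus DMSO wells marks Ras:RAF disruption; IC50 reported.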

NCI-H358 (K-Ras G12C) = experiment: CellTiter-Glo cell viability assay, NCI-H358; assay type: cell-based, human; settings: 5-day treatment; read-out: H358 Cell Viability assay data (K-Ras G12C, IC50)
In short: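 Five-day compound treatment of NCI-H358 cells, then CellTiter-Glo luminescence, percent of DMSO, four-parameter logistic fit.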

## CCn1c(-c2cccnc2[C@H](C)OC)c2c3cc(ccc31)-c1cc(O)cc(c1)C[C@H](NC(=O)[C@H](C(C)C)N(C)C(=O)[C@H]1C[C@@H]1C)C(=O)N1CCC[C@H](N1)C(=O)OCC(C)(C)C2 [Compound A287]
[1]; Homo sapiens, NCI-H358, 120 h
  pIC50: 6.00 to 7.00
[2]
  pIC50: 6.00 to 7.00

## CCn1c(-c2cccnc2[C@H](C)OC)c2c3cc(ccc31)-c1csc(n1)C[C@H](NC(=O)[C@H](C(C)C)N(C)C(=O)N1CC[C@@H](O)C1)C(=O)N1CCC[C@H](N1)C(=O)OCC(C)(C)C2 [Compound A376]
[1]; Homo sapiens, NCI-H358, 120 h
  pIC50: 7.00 to 8.00
[3]; Homo sapiens
  pEC50: > 5.30
[2]
  pIC50: 7.00 to 8.00

## CCn1c(-c2cccnc2[C@H](C)OC)c2c3cc(ccc31)-c1cc(O)cc(c1)C[C@H](NC(=O)[C@H](C(C)C)N(C)C(=O)[C@H]1CCCC[C@H]1N)C(=O)N1CCC[C@H](N1)C(=O)OCC(C)(C)C2 [Compound A419]
KRAS G12D
  pIC50: 7.00 to 8.00
KRAS G13C
  pIC50: 7.00 to 8.00
KRAS G12C
  pIC50: 7.00 to 8.00
KRAS WT
  pIC50: 7.00 to 8.00
KRAS G12V
  pIC50: 6.00 to 7.00
KRAS G13D
  pIC50: 7.00 to 8.00
KRAS G12S
  pIC50: 7.00 to 8.00
NRAS G12C
  pIC50: 7.00 to 8.00
[3]; Homo sapiens
  pEC50: > 5.30
[2]
  pIC50: 6.00 to 7.00

## CCn1c(-c2cccnc2[C@H](C)OC)c2c3cc(ccc31)-c1csc(n1)C[C@H](NC(=O)[C@H](C(C)C)N(C)C(=O)N1CC([C@@H](C)N(C)C)C1)C(=O)N1CCC[C@H](N1)C(=O)OCC(C)(C)C2 [Compound A458]
[1]; Homo sapiens, NCI-H358, 120 h
  pIC50: 7.00 to 8.00
[3]; Homo sapiens
  pEC50: > 5.30
[2]
  pIC50: 7.00 to 8.00

## CCn1c(-c2cccnc2[C@H](C)OC)c2c3cc(ccc31)-c1csc(n1)C[C@H](NC(=O)[C@H](C(C)C)N(C)C(=O)N1CCC[C@@H](N(C)C)C1)C(=O)N1CCC[C@H](N1)C(=O)OCC(C)(C)C2 [Compound A531]
[1]; Homo sapiens, NCI-H358, 120 h
  pIC50: 7.00 to 8.00
[3]; Homo sapiens
  pEC50: > 5.30
[2]
  pIC50: 7.00 to 8.00

## CCn1c(-c2cccnc2[C@H](C)OC)c2c3cc(ccc31)-c1csc(n1)C[C@H](NC(=O)[C@H](C(C)C)N(C)C(=O)N(C)[C@@H]1CCCN(C)C1)C(=O)N1CCC[C@H](N1)C(=O)OCC(C)(C)C2 [Compound A587]
[1]; Homo sapiens, NCI-H358, 120 h
  pIC50: 7.00 to 8.00
[3]; Homo sapiens
  pEC50: > 5.30

## CCn1c(-c2cccnc2[C@H](C)OC)c2c3cc(ccc31)-c1csc(n1)C[C@H](NC(=O)[C@H](C(C)C)N(C)C(=O)N1CCN(C(=O)[C@H]3CCCN3C)CC1)C(=O)N1CCC[C@H](N1)C(=O)OCC(C)(C)C2 [Compound A595]
[1]; Homo sapiens, NCI-H358, 120 h
  pIC50: 7.00 to 8.00
[3]; Homo sapiens
  pEC50: > 5.30
[2]
  pIC50: 6.00 to 7.00

## (2S)—N-[(8S,14S)-22-ethyl-4-hydroxy-21-[4-(methoxymethyl)pyridin-3-yl]-18,18-dimethyl-9,15-dioxo-16-oxa-10,22,28-triazapentacyclo [18.5.2.1^2,6.1^10,14.0^23,27]nonacosa-1 (26),2,4,6 (29),20,23 (27),24-heptaen-8-yl]-2-{1-[(3S)-1-{2-[(3R)-3-hydroxypyrrolidin-1-yl]acetyl}pyrrolidin-3-yl]-N-methylformamido}-3-methylbutanamide [Compound A6]
NCI-H358 (K-Ras G12C)
  pIC50: 6.00 to 7.00
KRAS G12D
  pIC50: 6.00 to 7.00
KRAS G13C
  pIC50: 6.00 to 7.00
KRAS G12C
  pIC50: 7.00 to 8.00
KRAS G12V
  pIC50: 6.00 to 7.00
KRAS G12S
  pIC50: 7.00 to 8.00
[1]
  pIC50: 5.00 to 6.00
[3]
  pEC50: > 5.30

— patent US20250195521A1 (Revolution Medicines, Inc., priority 2020, published 2025)
